Laboratory results: PMC7490411 (Signal Transduction and Targeted Therapy, 2020)

How the values were obtained:
Type in all cases: binding
[1] = target: T1, BTK (Homo sapiens, UniProt Q06187); assay: target-engagement assay with biotinylated probe CHMFL-BTK-85B in REC-1 cell; details: 2 h, 1 μM
T1 construct: purchased Invitrogen (Carlsbad, CA, USA)
Procedure: Cell lysates from REC-1 cells were treated with different concentrations of covalent inhibitor CHMFL-BTK-85 on ice for 2 hours. 1 µM biotinylated covalent probe (CHMFL-BTK-85B) was then added and lysates were incubated for another 2 hours. Uninhibited BTK was then captured by adding 50 µl Streptavidin agarose resin suspensions (Pierce) followed by an incubation for 1 hour. The resin was then spun down, washed briefly with 1X PBS buffer, and then resuspended in protein sample buffer for Western blot analysis.

[2] = test system: ABL1(F317L)-nonphosphorylated; assay: KINOMEscan; details: 1000 nM
[3] = test system: ACVR1; assay: KINOMEscan; details: 1000 nM
[4] = test system: ACVR2A; assay: KINOMEscan; details: 1000 nM
[5] = test system: ADCK3; assay: KINOMEscan; details: 1000 nM
[6] = test system: AKT2; assay: KINOMEscan; details: 1000 nM
[7] = test system: AURKA; assay: KINOMEscan; details: 1000 nM
[8] = test system: BMPR1B; assay: KINOMEscan; details: 1000 nM
[9] = test system: BMPR2; assay: KINOMEscan; details: 1000 nM
[10] = test system: BRK; assay: KINOMEscan; details: 1000 nM
[11] = test system: CAMK1D; assay: KINOMEscan; details: 1000 nM
[12] = test system: CAMKK1; assay: KINOMEscan; details: 1000 nM
[13] = test system: CDK11; assay: KINOMEscan; details: 1000 nM
[14] = test system: CDK4; assay: KINOMEscan; details: 1000 nM
[15] = test system: CDK4-cyclinD1; assay: KINOMEscan; details: 1000 nM
[16] = test system: CDK7; assay: KINOMEscan; details: 1000 nM
[17] = test system: CDKL2; assay: KINOMEscan; details: 1000 nM
[18] = test system: DCAMKL3; assay: KINOMEscan; details: 1000 nM
[19] = test system: DLK; assay: KINOMEscan; details: 1000 nM
[20] = test system: EGFR(G719S); assay: KINOMEscan; details: 1000 nM
[21] = test system: EGFR(L747-T751del,Sins); assay: KINOMEscan; details: 1000 nM
[22] = test system: EGFR(L861Q); assay: KINOMEscan; details: 1000 nM
[23] = test system: EIF2AK1; assay: KINOMEscan; details: 1000 nM
[24] = test system: EPHB3; assay: KINOMEscan; details: 1000 nM
[25] = test system: FER; assay: KINOMEscan; details: 1000 nM
[26] = test system: FLT1; assay: KINOMEscan; details: 1000 nM
[27] = test system: FLT3(K663Q); assay: KINOMEscan; details: 1000 nM
[28] = test system: FLT4; assay: KINOMEscan; details: 1000 nM
[29] = test system: HIPK3; assay: KINOMEscan; details: 1000 nM
[30] = test system: HIPK4; assay: KINOMEscan; details: 1000 nM
[31] = test system: KIT-autoinhibited; assay: KINOMEscan; details: 1000 nM
[32] = test system: LKB1; assay: KINOMEscan; details: 1000 nM
[33] = test system: LTK; assay: KINOMEscan; details: 1000 nM
[34] = test system: MAPKAPK5; assay: KINOMEscan; details: 1000 nM
[35] = test system: MAST1; assay: KINOMEscan; details: 1000 nM
[36] = test system: MEK2; assay: KINOMEscan; details: 1000 nM
[37] = test system: MELK; assay: KINOMEscan; details: 1000 nM
[38] = test system: MLK3; assay: KINOMEscan; details: 1000 nM
[39] = test system: MST2; assay: KINOMEscan; details: 1000 nM
[40] = test system: MST3; assay: KINOMEscan; details: 1000 nM
[41] = test system: NEK5; assay: KINOMEscan; details: 1000 nM
[42] = test system: NIM1; assay: KINOMEscan; details: 1000 nM
[43] = test system: PAK3; assay: KINOMEscan; details: 1000 nM
[44] = test system: PAK7; assay: KINOMEscan; details: 1000 nM
[45] = test system: PCTK3; assay: KINOMEscan; details: 1000 nM
[46] = test system: PIK3CB; assay: KINOMEscan; details: 1000 nM
[47] = test system: PIK3CG; assay: KINOMEscan; details: 1000 nM
[48] = test system: PRKCE; assay: KINOMEscan; details: 1000 nM
[49] = test system: RET; assay: KINOMEscan; details: 1000 nM
[50] = test system: S6K1; assay: KINOMEscan; details: 1000 nM
[51] = test system: SRMS; assay: KINOMEscan; details: 1000 nM
[52] = test system: STK36; assay: KINOMEscan; details: 1000 nM
[53] = test system: TGFBR1; assay: KINOMEscan; details: 1000 nM
[54] = test system: TYRO3; assay: KINOMEscan; details: 1000 nM
[55] = test system: ULK3; assay: KINOMEscan; details: 1000 nM
[56] = test system: YANK3; assay: KINOMEscan; details: 1000 nM

T1 sequence (Q06187 whole entry): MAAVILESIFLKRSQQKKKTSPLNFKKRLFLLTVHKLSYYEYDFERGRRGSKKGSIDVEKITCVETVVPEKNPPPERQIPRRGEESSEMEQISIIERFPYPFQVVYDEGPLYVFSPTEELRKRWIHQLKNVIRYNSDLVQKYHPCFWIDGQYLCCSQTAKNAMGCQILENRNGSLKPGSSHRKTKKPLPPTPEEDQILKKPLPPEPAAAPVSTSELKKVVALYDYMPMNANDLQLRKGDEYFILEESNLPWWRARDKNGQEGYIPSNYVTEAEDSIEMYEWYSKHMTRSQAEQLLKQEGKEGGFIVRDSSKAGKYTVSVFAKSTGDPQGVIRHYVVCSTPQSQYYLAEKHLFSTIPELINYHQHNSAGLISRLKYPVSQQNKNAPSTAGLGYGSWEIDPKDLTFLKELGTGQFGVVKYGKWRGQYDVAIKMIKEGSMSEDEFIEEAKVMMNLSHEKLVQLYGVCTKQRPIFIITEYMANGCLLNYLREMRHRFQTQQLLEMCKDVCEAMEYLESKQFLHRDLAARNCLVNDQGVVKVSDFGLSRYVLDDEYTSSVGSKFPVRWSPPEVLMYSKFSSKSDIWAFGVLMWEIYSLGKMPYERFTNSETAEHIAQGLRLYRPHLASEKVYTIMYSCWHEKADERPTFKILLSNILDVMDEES

C=CC(=O)Nc1cc(Nc2cc(-c3cccc(NC(=O)c4cc5c(s4)CCCC5)c3C)cn(C)c2=O)ccc1N1CCN(CC)CC1 [CHMFL-BTK-85]
covalent labelling of BTK in competition with CHMFL-BTK-85B [1]: almost completely covalently label all of the available BTK
Percent Control [2]: 100%
Percent Control [3]: 99%
Percent Control [4]: 97%
Percent Control [5]: 78%
Percent Control [6]: 88%
Percent Control [7]: 92%
Percent Control [8]: 100%
Percent Control [9]: 100%
Percent Control [10]: 21%
Percent Control [11]: 100%
Percent Control [12]: 75%
Percent Control [13]: 82%
Percent Control [14]: 100%
Percent Control [15]: 100%
Percent Control [16]: 96%
Percent Control [17]: 98%
Percent Control [18]: 100%
Percent Control [19]: 100%
Percent Control [20]: 88%
Percent Control [21]: 93%
Percent Control [22]: 94%
Percent Control [23]: 100%
Percent Control [24]: 100%
Percent Control [25]: 83%
Percent Control [26]: 100%
Percent Control [27]: 100%
Percent Control [28]: 97%
Percent Control [29]: 100%
Percent Control [30]: 91%
Percent Control [31]: 100%
Percent Control [32]: 92%
Percent Control [33]: 100%
Percent Control [34]: 100%
Percent Control [35]: 100%
Percent Control [36]: 100%
Percent Control [37]: 99%
Percent Control [38]: 91%
Percent Control [39]: 88%
Percent Control [40]: 66%
Percent Control [41]: 100%
Percent Control [42]: 100%
Percent Control [43]: 100%
Percent Control [44]: 82%
Percent Control [45]: 86%
Percent Control [46]: 94%
Percent Control [47]: 100%
Percent Control [48]: 93%
Percent Control [49]: 100%
Percent Control [50]: 100%
Percent Control [51]: 85%
Percent Control [52]: 99%
Percent Control [53]: 88%
Percent Control [54]: 97%
Percent Control [55]: 100%
Percent Control [56]: 89%
